From ChEMBL document CHEMBL4814045, “Discovery of novel Staphylococcus aureus penicillin binding protein 2a inhibitors by multistep virtual screening and biological evaluation” (Bioorg Med Chem Lett, 2021)
≈ marks a conversion by molar mass, not a printed value.

How the values were obtained:
[1] = tested on: L02; assay: Cytotoxicity against human LO2 cells; type: cell-based
[2] = tested on: Staphylococcus aureus; assay: Antibacterial activity against methicillin-resistant Staphylococcus aureus 03 clinical isolate by broth dilution assay; type: functional
[3] = tested on: Staphylococcus aureus; assay: Antibacterial activity against methicillin-resistant Staphylococcus aureus 08 clinical isolate by broth dilution assay; type: functional
[4] = tested on: Staphylococcus aureus; assay: Antibacterial activity against methicillin-resistant Staphylococcus aureus 11 clinical isolate by broth dilution assay; type: functional
[5] = tested on: Staphylococcus aureus; assay: Antibacterial activity against methicillin-resistant Staphylococcus aureus 12 clinical isolate by broth dilution assay; type: functional
[6] = tested on: Staphylococcus aureus; assay: Bactericidal activity against methicillin-resistant Staphylococcus aureus 01 clinical isolate by broth dilution assay; type: functional
[7] = tested on: Staphylococcus aureus; assay: Bactericidal activity against methicillin-resistant Staphylococcus aureus 02 clinical isolate by broth dilution assay; type: functional
[8] = tested on: Staphylococcus aureus; assay: Bactericidal activity against methicillin-resistant Staphylococcus aureus 03 clinical isolate by broth dilution assay; type: functional
[9] = tested on: Staphylococcus aureus; assay: Bactericidal activity against methicillin-resistant Staphylococcus aureus 04 clinical isolate by broth dilution assay; type: functional
[10] = tested on: Staphylococcus aureus; assay: Bactericidal activity against methicillin-resistant Staphylococcus aureus 05 clinical isolate by broth dilution assay; type: functional
[11] = tested on: Staphylococcus aureus; assay: Bactericidal activity against methicillin-resistant Staphylococcus aureus 06 clinical isolate by broth dilution assay; type: functional
[12] = tested on: Staphylococcus aureus; assay: Bactericidal activity against methicillin-resistant Staphylococcus aureus 07 clinical isolate by broth dilution assay; type: functional
[13] = tested on: Staphylococcus aureus; assay: Bactericidal activity against methicillin-resistant Staphylococcus aureus 08 clinical isolate by broth dilution assay; type: functional
[14] = tested on: Staphylococcus aureus; assay: Bactericidal activity against methicillin-resistant Staphylococcus aureus 09 clinical isolate by broth dilution assay; type: functional
[15] = tested on: Staphylococcus aureus; assay: Bactericidal activity against methicillin-resistant Staphylococcus aureus 10 clinical isolate by broth dilution assay; type: functional
[16] = tested on: Staphylococcus aureus; assay: Bactericidal activity against methicillin-resistant Staphylococcus aureus 11 clinical isolate by broth dilution assay; type: functional
[17] = tested on: Staphylococcus aureus; assay: Bactericidal activity against methicillin-resistant Staphylococcus aureus 12 clinical isolate by broth dilution assay; type: functional
[18] = tested on: Staphylococcus aureus; assay: Bactericidal activity against methicillin-resistant Staphylococcus aureus 13 clinical isolate by broth dilution assay; type: functional
[19] = tested on: Staphylococcus aureus; assay: Antibacterial activity against Staphylococcus aureus […]; type: functional
[20] = tested on: Staphylococcus aureus; assay: Antibacterial activity against methicillin-resistant Staphylococcus aureus ATCC 33591; type: functional
[21] = target: T1, MecA (Staphylococcus aureus) (UniProt Q7DHH4); assay: Binding affinity to Staphylococcus aureus PBP2a assessed as association constant by SPR assay
T1 sequence (whole entry): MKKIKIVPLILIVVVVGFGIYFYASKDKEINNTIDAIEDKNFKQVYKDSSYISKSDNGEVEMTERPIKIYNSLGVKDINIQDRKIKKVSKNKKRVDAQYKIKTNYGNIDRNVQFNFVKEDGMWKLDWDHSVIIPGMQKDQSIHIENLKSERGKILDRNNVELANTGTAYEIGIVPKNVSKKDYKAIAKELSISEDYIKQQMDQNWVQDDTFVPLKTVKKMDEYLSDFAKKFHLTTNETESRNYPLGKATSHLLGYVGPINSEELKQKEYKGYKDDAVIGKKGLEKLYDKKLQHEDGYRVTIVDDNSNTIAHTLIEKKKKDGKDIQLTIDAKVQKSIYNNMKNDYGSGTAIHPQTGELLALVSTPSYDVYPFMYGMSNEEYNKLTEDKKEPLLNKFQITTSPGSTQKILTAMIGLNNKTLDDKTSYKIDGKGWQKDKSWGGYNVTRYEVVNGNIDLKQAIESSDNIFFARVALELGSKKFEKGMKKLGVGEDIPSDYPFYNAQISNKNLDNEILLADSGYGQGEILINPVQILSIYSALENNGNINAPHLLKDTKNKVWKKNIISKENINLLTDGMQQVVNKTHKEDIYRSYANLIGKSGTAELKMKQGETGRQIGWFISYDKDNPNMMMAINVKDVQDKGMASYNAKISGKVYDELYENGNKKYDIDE

[22] = target: T2, MecA (Staphylococcus aureus, UniProt Q7DHH4); assay: Binding affinity to Staphylococcus aureus PBP2a assessed as equilibrium dissociation constant by SPR assay
T2 sequence (Q7DHH4 whole entry): T1 sequence (whole entry)

[23] = tested on: Staphylococcus aureus; assay: Antibacterial activity against methicillin-resistant Staphylococcus aureus 01 clinical isolate by broth dilution assay; type: functional
[24] = tested on: Staphylococcus aureus; assay: Antibacterial activity against methicillin-resistant Staphylococcus aureus 02 clinical isolate by broth dilution assay; type: functional
[25] = tested on: Staphylococcus aureus; assay: Antibacterial activity against methicillin-resistant Staphylococcus aureus 04 clinical isolate by broth dilution assay; type: functional
[26] = tested on: Staphylococcus aureus; assay: Antibacterial activity against methicillin-resistant Staphylococcus aureus 05 clinical isolate by broth dilution assay; type: functional
[27] = tested on: Staphylococcus aureus; assay: Antibacterial activity against methicillin-resistant Staphylococcus aureus 06 clinical isolate by broth dilution assay; type: functional
[28] = tested on: Staphylococcus aureus; assay: Antibacterial activity against methicillin-resistant Staphylococcus aureus 07 clinical isolate by broth dilution assay; type: functional
[29] = tested on: Staphylococcus aureus; assay: Antibacterial activity against methicillin-resistant Staphylococcus aureus 09 clinical isolate by broth dilution assay; type: functional
[30] = tested on: Staphylococcus aureus; assay: Antibacterial activity against methicillin-resistant Staphylococcus aureus 10 clinical isolate by broth dilution assay; type: functional
[31] = tested on: Staphylococcus aureus; assay: Antibacterial activity against methicillin-resistant Staphylococcus aureus 13 clinical isolate by broth dilution assay; type: functional

## CN[C@H](CC(C)C)C(=O)N[C@H]1C(=O)N[C@@H](CC(N)=O)C(=O)N[C@H]2C(=O)N[C@H]3C(=O)N[C@H](C(=O)N[C@H](C(=O)O)c4cc(O)cc(O)c4-c4cc3ccc4O)[C@H](O)c3ccc(c(Cl)c3)Oc3cc2cc(c3O[C@@H]2O[C@H](CO)[C@@H](O)[C@H](O)[C@H]2O[C@H]2C[C@](C)(N)[C@H](O)[C@H](C)O2)Oc2ccc(cc2Cl)[C@H]1O [VANCOMYCIN]
[1]
  IC50: > 20 µM
[2]
  MIC: 8 µg/mL (≈ 5.52 µM)
[3]
  MIC: 8 µg/mL (≈ 5.52 µM)
[4]
  MIC: 16 µg/mL (≈ 11 µM)
[5]
  MIC: 8 µg/mL (≈ 5.52 µM)
[6]
  MBC: 32 µg/mL (≈ 22.1 µM)
[7]
  MBC: 64 µg/mL (≈ 44.2 µM)
[8]
  MBC: 128 µg/mL (≈ 88.3 µM)
[9]
  MBC: 128 µg/mL (≈ 88.3 µM)
[10]
  MBC: 64 µg/mL (≈ 44.2 µM)
[11]
  MBC: 8 µg/mL (≈ 5.52 µM)
[12]
  MBC: 32 µg/mL (≈ 22.1 µM)
[13]
  MBC: 64 µg/mL (≈ 44.2 µM)
[14]
  MBC: 32 µg/mL (≈ 22.1 µM)
[15]
  MBC: 128 µg/mL (≈ 88.3 µM)
[16]
  MBC: 64 µg/mL (≈ 44.2 µM)
[17]
  MBC: 128 µg/mL (≈ 88.3 µM)
[18]
  MBC: 64 µg/mL (≈ 44.2 µM)

## O=C(C[C@@H]1NC(=O)c2ccccc2NC1=O)NCCc1c[nH]c2ccc(OCc3ccccc3)cc12
[19]
  MIC: 64 µg/mL (≈ 133 µM)
[20]
  MIC: 32 µg/mL (≈ 66.3 µM)
[1]
  IC50: > 20 µM

## C[C@]12CCC(=O)C=C1CC[C@@H]1[C@H]2CC[C@@]2(C)[C@H]1CC[C@]2(O)C(=O)COC(=O)CCC(=O)N[C@H]1CCCCNC1=O
[19]
  MIC: 4 µg/mL (≈ 7.19 µM)
[20]
  MIC: 4 µg/mL (≈ 7.19 µM)
[1]
  IC50: 16.9 µM

## COc1ccc(-c2cc(=O)oc3c(C)c(OCC(=O)N[C@@H](Cc4c[nH]c5ccc(O)cc45)C(=O)O)ccc23)cc1
[19]
  MIC: 4 µg/mL (≈ 7.37 µM)
[20]
  MIC: 4 µg/mL (≈ 7.37 µM)
[1]
  IC50: 11.6 µM
[21]
  Ka: 5.65 10^5/M/s
[22]
  Kd: 0.264 µM

## COc1ccc(CNC(=O)[C@@H](C)Oc2ccc3c(c2)c2cncc4c5cc(OC)c(OC)cc5c(=O)n3c42)c(OC)c1
[19]
  MIC: 64 µg/mL (≈ 113 µM)
[20]
  MIC: 128 µg/mL (≈ 226 µM)
[1]
  IC50: 6.4 µM

## COc1ccc(CCNC(=O)COc2ccc3c(c2)OC2(CCN(C(C)=O)CC2)CC3=O)cc1OC
[19]
  MIC: 16 µg/mL (≈ 32.2 µM)
[20]
  MIC: 64 µg/mL (≈ 129 µM)
[1]
  IC50: 7.8 µM

## CC(=O)Nc1ccc(NC(=O)COc2cc3c(c4oc(=O)c(C)c(C)c24)CCC(C)(C)O3)cc1
[19]
  MIC: 32 µg/mL (≈ 68.9 µM)
[20]
  MIC: 64 µg/mL (≈ 138 µM)
[1]
  IC50: > 20 µM

## Cc1ccc(NC(=O)[C@H](Cc2c[nH]c3ccccc23)NC(=O)C2CCN(C(=O)CNC(=O)OC(C)(C)C)CC2)cc1
[19]
  MIC: 2 µg/mL (≈ 3.56 µM)
[20]
  MIC: 2 µg/mL (≈ 3.56 µM)
[1]
  IC50: > 20 µM
[23]
  MIC: 2 µg/mL (≈ 3.56 µM)
[24]
  MIC: 4 µg/mL (≈ 7.12 µM)
[2]
  MIC: 8 µg/mL (≈ 14.2 µM)
[25]
  MIC: 4 µg/mL (≈ 7.12 µM)
[26]
  MIC: 1 µg/mL (≈ 1.78 µM)
[27]
  MIC: 4 µg/mL (≈ 7.12 µM)
[28]
  MIC: 4 µg/mL (≈ 7.12 µM)
[3]
  MIC: 0.5 µg/mL (≈ 0.89 µM)
[29]
  MIC: 16 µg/mL (≈ 28.5 µM)
[30]
  MIC: 4 µg/mL (≈ 7.12 µM)
[4]
  MIC: 2 µg/mL (≈ 3.56 µM)
[5]
  MIC: 8 µg/mL (≈ 14.2 µM)
[31]
  MIC: 16 µg/mL (≈ 28.5 µM)
[6]
  MBC: 32 µg/mL (≈ 57 µM)
[7]
  MBC: 64 µg/mL (≈ 114 µM)
[8]
  MBC: 128 µg/mL (≈ 228 µM)
[9]
  MBC: 64 µg/mL (≈ 114 µM)
[10]
  MBC: 8 µg/mL (≈ 14.2 µM)
[11]
  MBC: 64 µg/mL (≈ 114 µM)
[12]
  MBC: 64 µg/mL (≈ 114 µM)
[13]
  MBC: 32 µg/mL (≈ 57 µM)
[14]
  MBC: 64 µg/mL (≈ 114 µM)
[15]
  MBC: 64 µg/mL (≈ 114 µM)
[16]
  MBC: 128 µg/mL (≈ 228 µM)
[17]
  MBC: 256 µg/mL (≈ 456 µM)
[18]
  MBC: 128 µg/mL (≈ 228 µM)
[21]
  Ka: 3.28 10^5/M/s
[22]
  Kd: 0.129 µM

## COc1cc2c(c(OC)c1OC)-c1ccc(NCC(=O)NCCc3c[nH]c4ccccc34)c(=O)cc1[C@@H](NC(C)=O)CC2
[19]
  MIC: 2 µg/mL (≈ 3.42 µM)
[20]
  MIC: 4 µg/mL (≈ 6.84 µM)
[1]
  IC50: > 20 µM
[21]
  Ka: 3.48 10^5/M/s
[22]
  Kd: 0.168 µM

## COc1ccc(NC(=O)[C@H]2Oc3c(c(=O)oc4ccccc34)[C@@H]2c2ccc(CCCN3CCCC3=O)cc2)cc1
[19]
  MIC: 128 µg/mL (≈ 238 µM)
[20]
  MIC: 64 µg/mL (≈ 119 µM)
[1]
  IC50: > 20 µM
[21]
  Ka: 2.46 10^4/M/s
[22]
  Kd: 86.6 µM

## COc1cccc(/C=C2\Oc3cc(OCC(=O)N[C@@H](Cc4c[nH]c5ccccc45)C(=O)O)ccc3C2=O)c1
[19]
  MIC: 4 µg/mL (≈ 7.8 µM)
[20]
  MIC: 8 µg/mL (≈ 15.6 µM)
[1]
  IC50: > 20 µM

## CC[C@H](C)[C@@H](CC(=O)CNC(=O)CCc1c(C)c2cc3oc(C)c(-c4ccccc4)c3c(C)c2oc1=O)C(=O)O
[19]
  MIC: 32 µg/mL (≈ 58.6 µM)
[20]
  MIC: 64 µg/mL (≈ 117 µM)
[1]
  IC50: > 20 µM
